Some test systems named below: HOP-18 NSCLC; M19-MEL melanoma; XF 498 CNS; RXF-631 renal; DMS 273 small cell lung; SNB-78 CNS; DLD-1 colon; LXFL 529 NSCLC; MDA-N.
What all share (assay): DTP human tumour cell line panel, 48 h

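Compound exposure: 48 hours, 5 concentrations, 96-well plates. Abbreviation: GI50, concentration required for 50% inhibition of growth. TGI denotes the concentration required for complete inhibition of growth.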

For `O=C1C2C3CC(C4C5C=CC(C5)C34)C2C2C3CC(C12)C1C2C=CC(C2)C31` (stereo not drawn), the TGI in the assay with HOP-18 NSCLC, in the assay with M19-MEL melanoma, with XF 498 CNS, in the assay with RXF-631 renal, with DMS 273 small cell lung and in the assay on SNB-78 CNS was over 100 µM throughout. The concentration for total growth inhibition (TGI) in the assay with DLD-1 colon and with LXFL 529 NSCLC was over 100 µM in each case.
Regarding `O=C1O/C(=C/c2ccccc2)C(c2ccccc2)=C1O`, in the assay on MDA-N, the TGI (as a rule, the concentration at which net growth stops) was over 100 µM.
The compound `CCOP(=O)(OCC)C(C(=O)OC)C(=O)C(=O)Nc1cccc(O)c1` (stereo not drawn) yielded a total growth inhibition concentration (TGI) in the assay on MDA-N of over 100 µM.
`CCNC(=O)OCc1c(COC(=O)NCC)c(-c2ccc(Cl)c(Cl)c2)n2c1CCC2`: the TGI with M19-MEL melanoma was 58.1 µM; in the assay with XF 498 CNS it was 36.3 µM; with DMS 273 small cell lung, 31.1 µM; in the assay on DLD-1 colon it was 72.3 µM; in the assay with LXFL 529 NSCLC it was 34.8 µM.
For `Nc1c(Cl)ncnc1NCCCCCCCCCCCCNc1ncnc(Cl)c1N`, the TGI in the assay on HOP-18 NSCLC worked out at 83.1 µM; with M19-MEL melanoma, 18.8 µM; in the assay on XF 498 CNS, 3.02 µM; in the assay on RXF-631 renal, 9.72 µM; with DMS 273 small cell lung it was 10.2 µM; with SNB-78 CNS, 3.54 µM. Besides, the values for the concentration for total growth inhibition (TGI) with DLD-1 colon and with LXFL 529 NSCLC were over 100 µM and 20.5 µM, respectively.
Consider `Cc1cc(C)c(-c2noc(-c3ccc(Cl)cc3)c2C2=NCCCN2)c(C)c1`, for which the total growth inhibition concentration (TGI) was over 100 µM in the assay with HOP-18 NSCLC; over 100 µM in the assay with M19-MEL melanoma; 54.8 µM in the assay on XF 498 CNS; over 100 µM in the assay on RXF-631 renal; over 100 µM in the assay with SNB-78 CNS; over 100 µM with DLD-1 colon. Further, in the assay with LXFL 529 NSCLC, the TGI is over 100 µM.
As for `COc1ccc(S(=O)(=O)N(CC(=O)O)c2ccccc2)cc1`, the TGI in the assay on HOP-18 NSCLC, in the assay with M19-MEL melanoma, in the assay on DMS 273 small cell lung, with DLD-1 colon and with LXFL 529 NSCLC was over 100 µM throughout.
For `O=C(c1ccc(Cl)cc1)c1ccc(OCCCOc2ccc(C(=O)c3ccc(Cl)cc3)cc2Cl)c(Cl)c1`, the total growth inhibition concentration (TGI) in the assay with M19-MEL melanoma, in the assay on XF 498 CNS, in the assay with RXF-631 renal, in the assay with DMS 273 small cell lung, in the assay on SNB-78 CNS and in the assay on DLD-1 colon was over 100 µM in each case. The compound further yielded a concentration for total growth inhibition (TGI) with LXFL 529 NSCLC of over 100 µM.
Consider `CCCCCC/C=C\CCCCCCCCCC1=C(CN2CCN(C)CC2)C(=O)C=C(OC)C1=O`, for which the TGI in the assay on MDA-N was determined as 21.1 µM.
Take `Cc1cccc(C)c1N1C(=O)C(=O)C(c2nc3ccccc3s2)/C(=N\N)C1=O` (stereo not drawn): the TGI in the assay on HOP-18 NSCLC, in the assay with M19-MEL melanoma, in the assay with RXF-631 renal, in the assay with DMS 273 small cell lung, in the assay with SNB-78 CNS and in the assay on DLD-1 colon was over 100 µM in each case. The compound also gave a total growth inhibition concentration (TGI) in the assay on LXFL 529 NSCLC of over 100 µM.
Regarding `CCOC(=O)C(C#N)C1=CC(=O)C(=O)c2ccc(O)cc21` (stereo not drawn), the concentration for total growth inhibition (TGI) with MDA-N worked out at 32.7 µM.
On the same count and under the same terms, the result for `CC(=O)NNc1nc(C)c(C(/C=C/c2ccccc2O)=N/N=C(N)N)s1` reads over 100 µM.
The same measure, in the same setting: next, `NS(=O)(=O)c1cc(C(=O)O)c(O)c2ccccc12`: over 100 µM.
Regarding `CN(/N=C/c1ccnc2ccccc12)c1c([N+](=O)[O-])cc([N+](=O)[O-])cc1[N+](=O)[O-]`, the concentration for total growth inhibition (TGI) in the assay with HOP-18 NSCLC, in the assay on M19-MEL melanoma, in the assay with XF 498 CNS, in the assay with DMS 273 small cell lung, in the assay with SNB-78 CNS and in the assay on DLD-1 colon was over 100 µM each time. The TGI with LXFL 529 NSCLC was over 100 µM.
For `N/N=C(/Cc1nc2ccc(C(=O)c3ccccc3)cc2[nH]c1=O)C(=O)Nc1ccc([N+](=O)[O-])cc1[N+](=O)[O-]`, the TGI in the assay with HOP-18 NSCLC, with M19-MEL melanoma, in the assay on XF 498 CNS, in the assay on DMS 273 small cell lung, with SNB-78 CNS and in the assay on LXFL 529 NSCLC was over 100 µM each time. For the same compound, the GI50 with M19-MEL melanoma, with DMS 273 small cell lung, in the assay with SNB-78 CNS and in the assay on LXFL 529 NSCLC was over 100 µM each time.
As to `Cc1nc2c(o1)C(=Nc1ccccc1)c1nc(C)oc1C2=Nc1ccccc1`, the TGI in the assay on HOP-18 NSCLC was 52.9 µM; in the assay on M19-MEL melanoma it was 47.6 µM; in the assay with XF 498 CNS, 33.2 µM; in the assay on DMS 273 small cell lung, 50.5 µM; with SNB-78 CNS, over 100 µM; in the assay on DLD-1 colon, 67.9 µM. Moreover, the total growth inhibition concentration (TGI) in the assay on LXFL 529 NSCLC was 45.1 µM.
For the compound `COc1ccc(OC)c(/C=N/N=C(\N)NO)c1`, the TGI was over 100 µM in the assay with M19-MEL melanoma; 58.3 µM in the assay with XF 498 CNS; over 100 µM in the assay on RXF-631 renal; over 100 µM in the assay with DMS 273 small cell lung; over 100 µM in the assay on SNB-78 CNS; over 100 µM in the assay with DLD-1 colon. Also, in the assay on LXFL 529 NSCLC, the TGI was over 100 µM.
On to `O=C(CCN1CCCCC1)N1CCc2c([nH]c3ccccc23)C1c1cccnc1` (stereo not drawn), for which the concentration for total growth inhibition (TGI) is over 100 µM with HOP-18 NSCLC; 46.1 µM with M19-MEL melanoma; 57.3 µM in the assay with XF 498 CNS; over 80.7 µM with RXF-631 renal; over 100 µM in the assay with DMS 273 small cell lung; 75 µM with MDA-N. The total growth inhibition concentration (TGI) in the assay with SNB-78 CNS was over 100 µM; with DLD-1 colon, over 100 µM; with LXFL 529 NSCLC, 38.1 µM.
As to `O=C(/C=C/c1cccc([N+](=O)[O-])c1)c1ccc([N+](=O)[O-])cc1`, the total growth inhibition concentration (TGI) in the assay on M19-MEL melanoma, in the assay on XF 498 CNS, in the assay on RXF-631 renal, with DMS 273 small cell lung, in the assay with SNB-78 CNS and in the assay on DLD-1 colon was over 100 µM each time. In the assay with LXFL 529 NSCLC, the TGI was over 100 µM.
Turning to `O=C(/C=C\c1cccc2ccccc12)c1ccc(Cl)cc1Cl`, the total growth inhibition concentration (TGI) in the assay on HOP-18 NSCLC was determined as 48.1 µM; with M19-MEL melanoma, 35.9 µM; in the assay on RXF-631 renal, 74.3 µM; in the assay with DMS 273 small cell lung, 34.8 µM; with SNB-78 CNS, 45.5 µM; with DLD-1 colon, 40.8 µM. Besides, in the assay with LXFL 529 NSCLC, the total growth inhibition concentration (TGI) came to 32.8 µM.
Consider `O=C(Nc1ccc(Cl)c(Cl)c1)C(=O)C(C(=O)c1ccccc1-c1ccccc1)C1OC(=O)c2ccccc21` (stereo not drawn), for which the TGI in the assay with M19-MEL melanoma is 33.9 µM; with XF 498 CNS, 26.5 µM; with RXF-631 renal, 37.7 µM; in the assay with SNB-78 CNS, over 100 µM; in the assay with DLD-1 colon it was 30.1 µM; in the assay on LXFL 529 NSCLC, 21 µM.

The values are drawn from PubChem BioAssay (NCI).
